From patent US20220202811A1, “TREATMENT FOR RETINOIC ACID RECEPTOR-RELATED ORPHAN RECEPTOR Ɣ (RORƔ)-DEPENDENT CANCERS” (The Regents of the University of California, priority 2019, published 2022)
Entries after “also recorded” stand apart in the source; their conditions may differ.

Tests used:
pancreatic cancer cell [1] = assay: in vitro sphere formation, antagonists of Table 2; type: cell-based, mouse; parameters: key: ✓✓✓✓: dose response observed; growth suppressed by 8-fold or more relative to control; ✓✓✓: dose response observed; growth suppressed between 4-fold and 8-fold relative to control; ✓✓: dose response observed; growth suppressed by less than 4-fold relative to control; ✓: response observed only at highest drug dose tested; —: no detectable response; details: extent of growth suppression relative to control
Experimental: Pancreatic tumorsphere formation assays were performed and modified from (Rovira et al., 2010). Briefly, low-passage (<6 passages) WT or REM2-KP^f/fC cell lines were infected with lentiviral particles containing shRNAs; positively infected (red) cells were sorted 72 hours after transduction. 100-300 infected cells were suspended in tumorsphere media: 100 μl DMEM F-12 (Gibco, Life Technologies) containing 1× B-27 supplement (Gibco, Life Technologies), 3% FBS, 100 μM B-mercaptoethanol (Gibco, Life Technologies), 1× non-essential amino acids (Gibco, Life Technologies), 1× N2 supplement (Gibco, Life Technologies), 20 ng/ml EGF (Gibco, Life Technologies), 20 ng/ml bFGF2 (Gibco, Life Technologies), and 10 ng/ml ESGRO mLIF (Thermo Fisher). Cells in media were plated in 96-well ultra-low adhesion culture plates (Costar) and incubated at 37° C. for 7 days. KP^f/fC in vitro tumorsphere formation studies were conducted at a minimum of n=3 independent wells per cell line across two independent shRNA of n=3 wells; however, the majority of these experiments were additionally completed in >1 independently-derived cell lines n=3, at n=3 wells per shRNA.

pancreatic cancer cell [2] = assay: in vivo tumor growth, antagonists of Table 2; parameters: species or system mouse; key: ✓✓✓✓: dose response observed; growth suppressed by 8-fold or more relative to control; ✓✓✓: dose response observed; growth suppressed between 4-fold and 8-fold relative to control; ✓✓: dose response observed; growth suppressed by less than 4-fold relative to control; ✓: response observed only at highest drug dose tested; —: no detectable response; details: extent of growth suppression relative to control
[3] = tested on: KP^f/fC derived flank tumors; assay: KP^f/fC flank tumors in immunocompetent mice; type: in vivo, mouse; details: gemcitabine alone
[4] = tested on: primary patient-derived PDX1535 organoids; assay: PDX1535 organoid assay; type: cell-based, human
Experimental: PDX1535 organoids were derived from a patient of pancreatic cancer. Primary patient organoids were established by digesting patient-derived xenografts for 1 hour at 37° C. in RPMI containing 2.5% FBS, 5 mg/ml Collagenase II, and 1.25 mg/ml Dispase II, followed by passage through a […] mesh filter. Cells were plated at a density of 1.5×10^5 cells per 50 μl Matrigel. After domes were solidified, growth medium was added as follows: RPMI containing 50% Wnt3a conditioned media, 10% RSpondin1-conditioned media, 2.5% FBS, 50 ng/ml EGF, 5 mg/ml Insulin, 12.5 ng/ml hydrocortisone, and 14 μM Rho Kinase Inhibitor. After establishment, organoids were passaged and maintained. Briefly, organoids were isolated using Cell Recovery Solution (Corning 354253), then dissociated into single cell suspension with TrypLE Express (ThermoFisher 12604) supplemented with 25 μg/ml DNase I (Roche) and 14 μM Rho Kinase Inhibitor (Y-27632, Sigma). Cells were split 1:2 into 20 μl domes plated on pre-warmed 48-well plates. Domes were incubated at 37° C. for 5 min, then covered with human complete organoid feeding media without Wnt3a-conditioned media. […] The organoids were imaged and measured at the end of treatment. […] Moreover, the anti-cancer effect of JTE-151 was determined in an organoid assay using pancreatic cancer cells derived from mice bearing primary patient-derived xenografts.

[5] = tested on: primary patient-derived PDX1356 organoids; assay: PDX1356 organoid assay; type: cell-based, human; details: 0.05 nM gemcitabine alone
Experimental: PDX1535 organoids were derived from a patient of pancreatic cancer. Primary patient organoids were established by digesting patient-derived xenografts for 1 hour at 37° C. in RPMI containing 2.5% FBS, 5 mg/ml Collagenase II, and 1.25 mg/ml Dispase II, followed by passage through a […] mesh filter. Cells were plated at a density of 1.5×10^5 cells per 50 μl Matrigel. After domes were solidified, growth medium was added as follows: RPMI containing 50% Wnt3a conditioned media, 10% RSpondin1-conditioned media, 2.5% FBS, 50 ng/ml EGF, 5 mg/ml Insulin, 12.5 ng/ml hydrocortisone, and 14 μM Rho Kinase Inhibitor. After establishment, organoids were passaged and maintained. Briefly, organoids were isolated using Cell Recovery Solution (Corning 354253), then dissociated into single cell suspension with TrypLE Express (ThermoFisher 12604) supplemented with 25 μg/ml DNase I (Roche) and 14 μM Rho Kinase Inhibitor (Y-27632, Sigma). Cells were split 1:2 into 20 μl domes plated on pre-warmed 48-well plates. Domes were incubated at 37° C. for 5 min, then covered with human complete organoid feeding media without Wnt3a-conditioned media.
As shown in FIGS. 65-66, the anti-cancer effect of JTE-151 was also tested using the organoid assay on primary patient-derived PDX1356 pancreatic cancer cells. […] The volume of organoids was expressed as relative to control.

Cc1c(F)cccc1NC(=O)Nc1ccc(Cl)c(S(=O)(=O)[C@H]2CCCNC2)c1O [Danirixin]
in vitro sphere formation (pancreatic cancer cell [1]): —

Cl[TeH]1(Cl)(Cl)OCCO1 [AS101]
in vitro sphere formation (pancreatic cancer cell [1]): ✓✓✓ (dose response observed; growth suppressed between 4-fold and 8-fold relative to control) | in vivo tumor growth (pancreatic cancer cell [2]): —

CCc1cc(Cl)c(OC)c(C(=O)NC[C@@H]2CCCN2CC)c1O [Eticlopride]
in vitro sphere formation (pancreatic cancer cell [1]): — | in vivo tumor growth (pancreatic cancer cell [2]): —

Nc1ccn([C@@H]2O[C@H](CO)[C@@H](O)C2(F)F)c(=O)n1 [gemcitabine]
cancer stem cell burden [3]: no impact | organoid growth ([4]; 0.025 nM gemcitabine alone): decreased PDZ1535 organoid growth, although not statistically significant | organoid volume / growth ([4]; 0.05 nM gemcitabine alone): visibly reduced; also recorded: significant inhibition | organoid volume [5]: significant reduction; also recorded: visibly decreased; also recorded: visibly reduced

O=C1/C(=C/c2ccccc2)C(NC2CCCCC2)c2ccccc21 (centres unmarked) [BCl]
in vitro sphere formation (pancreatic cancer cell [1]): ✓✓ (dose response observed; growth suppressed by less than 4-fold relative to control) | in vivo tumor growth (pancreatic cancer cell [2]): —

Oc1c(Br)cc(Br)cc1-c1[nH]c(Br)c(Br)c1Br [Pentabromopseudilin]
in vitro sphere formation (pancreatic cancer cell [1]): ✓✓ (dose response observed; growth suppressed by less than 4-fold relative to control)

CC(C)(C)NC(=O)c1cncn1C1CCN(c2ccc(-c3nnc(C(F)(F)F)o3)cn2)CC1 [Wnk463]
in vitro sphere formation (pancreatic cancer cell [1]): ✓✓ (dose response observed; growth suppressed by less than 4-fold relative to control)

NCCCCCCCN=C(N)N [GC7]
in vitro sphere formation (pancreatic cancer cell [1]): ✓
